# Laboratory results: the supplement of paper PMC10307832
# How the values were obtained:
# Test in all cases: relative viability (nuclei count vs DMSO), 5 days (fraction); higher = more cells survive
# Seliciclib + Phenformin = compound: CC[C@H](CO)Nc1nc(NCc2ccccc2)c2ncn(C(C)C)c2n1 [Seliciclib] + N=C(N)NC(=N)NCCc1ccccc1 [Phenformin] (partner 250 µM)
# Method in brief: (§1)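 Each reported value is a median over duplicate plates. It expresses relative viability: treated-well nuclei count divided by vehicle-well nuclei count. Lung cancer cell lines in 1536-well plates were dosed by pin tool a day after seeding, alone with one drug or with a fixed anchor-drug dose plus five library-drug doses (not always all listed) in √10 steps, and nuclei were counted after 5 days.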
# Seliciclib + Pictilisib = compound: CC[C@H](CO)Nc1nc(NCc2ccccc2)c2ncn(C(C)C)c2n1 [Seliciclib] + CS(=O)(=O)N1CCN(Cc2cc3nc(-c4cccc5[nH]ncc45)nc(N4CCOCC4)c3s2)CC1 [Pictilisib] (partner 1 µM)
# Method in brief: as §1
# Seliciclib + Palbociclib = compound: CC[C@H](CO)Nc1nc(NCc2ccccc2)c2ncn(C(C)C)c2n1 [Seliciclib] + CC(=O)c1c(C)c2cnc(Nc3ccc(N4CCNCC4)cn3)nc2n(C2CCCC2)c1=O [Palbociclib] (partner 0.5 µM)
# Method in brief: as §1
# Seliciclib + Decitabine = compound: CC[C@H](CO)Nc1nc(NCc2ccccc2)c2ncn(C(C)C)c2n1 [Seliciclib] + Nc1ncn([C@H]2C[C@H](O)[C@@H](CO)O2)c(=O)n1 [Decitabine] (partner 2 µM)
# Method in brief: as §1
Cell Line,relative viability (Seliciclib + Phenformin; first compound 0.08 µM),relative viability (Seliciclib + Phenformin; first compound 0.253 µM),relative viability (Seliciclib + Phenformin; first compound 0.8 µM),relative viability (Seliciclib + Phenformin; first compound 2.53 µM),relative viability (Seliciclib + Phenformin; first compound 8 µM),relative viability (Seliciclib + Pictilisib; first compound 0.08 µM),relative viability (Seliciclib + Pictilisib; first compound 0.253 µM),relative viability (Seliciclib + Pictilisib; first compound 0.8 µM),relative viability (Seliciclib + Pictilisib; first compound 2.53 µM),relative viability (Seliciclib + Pictilisib; first compound 8 µM),relative viability (Seliciclib + Palbociclib; first compound 0.08 µM),relative viability (Seliciclib + Palbociclib; first compound 0.253 µM),relative viability (Seliciclib + Palbociclib; first compound 0.8 µM),relative viability (Seliciclib + Palbociclib; first compound 2.53 µM),relative viability (Seliciclib + Palbociclib; first compound 8 µM),relative viability (Seliciclib + Decitabine; first compound 0.08 µM),relative viability (Seliciclib + Decitabine; first compound 0.253 µM),relative viability (Seliciclib + Decitabine; first compound 0.8 µM),relative viability (Seliciclib + Decitabine; first compound 2.53 µM),relative viability (Seliciclib + Decitabine; first compound 8 µM)
LXF-289,0.52,0.505,0.501,0.507,0.496,0.779,0.86,0.701,0.595,0.724,0.561,0.677,0.59,0.543,0.501,0.348,0.299,0.403,0.39,0.39
HCC-44,0.309,0.126,0.375,0.0882,0.174,0.639,0.691,0.534,0.46,0.44,0.969,1.02,0.994,0.883,0.889,0.946,0.996,0.99,0.927,0.906
NCI-H358,0.347,0.392,0.248,0.241,0.209,0.346,0.408,0.289,0.312,0.216,0.13,0.167,0.133,0.105,0.107,0.204,0.216,0.221,0.193,0.176
PC-14,0.665,0.431,0.553,0.463,0.319,0.622,0.67,0.69,0.808,0.513,0.444,0.65,0.517,0.391,0.275,0.211,0.228,0.222,0.252,0.25
HOP-62,0.665,0.699,0.75,0.713,0.576,0.778,0.61,0.563,0.588,0.62,0.463,0.398,0.397,0.366,0.308,0.199,0.177,0.223,0.235,0.253
NCI-H1944,0.188,0.22,0.168,0.178,0.168,0.375,0.35,0.333,0.283,0.303,0.354,0.312,0.28,0.261,0.268,0.471,0.43,0.467,0.519,0.405
NCI-H2170,0.393,0.489,0.354,0.436,0.411,0.306,0.255,0.286,0.243,0.336,0.389,,0.372,0.364,0.308,0.453,,0.452,0.537,0.442
NCI-H1666,0.59,0.589,0.556,0.549,0.516,0.33,0.526,0.478,0.353,0.439,0.635,0.633,0.666,0.603,0.5,0.641,0.712,0.797,0.58,0.664
NCI-H1355,0.436,0.443,0.433,0.423,0.435,0.426,0.452,0.359,0.452,0.429,0.374,0.331,0.364,0.371,0.341,0.35,0.334,0.356,0.374,0.38
HCC-827,0.4,0.422,0.402,0.435,0.351,0.953,0.963,0.811,1.03,0.925,0.486,0.493,0.456,0.39,0.231,0.337,0.36,0.327,0.287,0.273
HARA,0.424,0.423,0.469,0.47,0.393,0.284,0.376,0.339,0.422,0.283,0.284,0.282,0.229,0.259,0.163,0.456,0.655,0.56,0.474,0.6
HCC-366,0.618,0.716,0.571,0.62,0.506,0.12,0.137,0.106,0.109,0.163,0.35,0.272,0.345,0.328,0.166,0.357,0.297,0.333,0.414,0.297
NCI-H322M,0.861,0.967,0.693,0.673,0.536,0.523,0.583,0.494,0.449,0.379,0.472,0.538,0.467,0.428,0.431,0.782,0.715,0.715,0.668,0.614
NCI-H2347,0.536,0.397,0.319,0.298,0.408,0.645,0.6,0.321,0.829,0.448,0.44,0.439,0.404,0.406,0.433,0.66,0.522,0.597,0.602,0.597
NCI-H1975,0.386,0.335,0.392,0.312,0.236,0.296,0.298,0.352,0.214,0.271,0.619,0.342,0.55,0.389,0.339,0.394,0.349,0.365,0.645,0.332
UMC-11,0.341,0.343,0.322,0.272,0.232,0.919,0.891,0.854,0.8,0.7,0.317,0.27,0.325,0.312,0.303,0.542,0.392,0.612,0.606,0.526
ABC-1,0.251,0.257,0.234,0.281,0.222,0.773,0.927,0.619,0.42,0.424,0.673,0.565,0.863,,0.562,1.11,1.18,1.17,,0.6
